Laboratory results from PMC5361186 (Scientific Reports, 2017).
Where “and” joins values, the source holds several entries; their conditions need not be identical. Identical values can stand only once. Blank lines part the entries; values can stand above or below the substance they belong to. No end group written: not given here.

Columns and labels:
pepsin = assay: pepsin; conditions: cited from earlier work
intestinal peptidases [1] = assay: intestinal peptidases; conditions: cited from earlier work
[2] = test system: pepsin and trypsin/chymotrypsin (PTC); assay: pepsin (in 0.01 mol/L HCl, pH 2.0, E:P ratio of 1:25) followed by trypsin and α-chymotrypsin (in 0.05 mol/L phosphate buffer, pH 6.5, E:P ratio of 1:200); conditions: porcine gastric mucosa (pepsin); bovine pancreas (trypsin, α-chymotrypsin), 37 °C, up to 60 min (pepsin) followed by 120 min (trypsin and α-chymotrypsin)
[3] = test system: tissue transglutaminase (TG2); assay: tissue transglutaminase (TG2); conditions: cited from earlier work
α-chymotrypsin [4] = assay: α-chymotrypsin (E:P ratio of 1:200) in TRIS-HCl-buffer (0.1 mol/L TRIS-HCl, pH 7.8, urea 120 mg/mL); conditions: bovine pancreas, 37 °C, up to 24 h
α-chymotrypsin [5] = target: T1, α-chymotrypsin (Bos taurus, UniProt P00766, DEL14-15/DEL147-148); assay: Resistance to chymotryptic cleavage; format: in vitro ADME, bovine pancreas; conditions: peptide 10 μg/ml, 0.1 mol/L TRIS-HCl pH 7.8, urea 120 mg/mL, α-chymotrypsin E:P 1:200, 24 h, 37 °C
T1 construct: purchased Sigma-Aldrich (Steinheim, Germany)
Experimental: Preliminary experiments using a combination of pepsin and trypsin/chymotrypsin (PTC) for enzymatic hydrolysis were performed with the 33-mer. This PTC hydrolysate of the 33-mer was analysed by untargeted LC-MS/MS followed by data evaluation using the MS/MS ions search module of the Mascot software based on the NCBI database (National Library of Medicine, Bethesda, MD, USA). In addition to the original 33-mer, the truncated forms after N-terminal removal of leucine resulting in a 32-mer (m/z 950.0, 4+ and m/z 1266.3, 3+) and pyro-32-mer (m/z 945.7, 4+ and m/z 1260.6, 3+) were identified, but no 30-mer (m/z 889.7, 4+ and m/z 1185.9, 3+) after potential removal of N-terminal LQL. The ratio 33-mer/32-mer/pyro-32-mer was about 12/76/12. To see whether cleavage of the N-terminal leucine could be minimised, only chymotrypsin was used for further experiments. Therefore, the 33-mer peptide was incubated with chymotrypsin using exactly the same conditions as described for the samples to check its resistance towards cleavage, because it contains two potential chymotryptic cleavage sites at positions L1 and L3. […] Full MS/MS scans were also done for the chymotryptic hydrolysates of the albumin/globulin and gliadin fractions obtained from wheat cv. MJO. […] This is consistent with the original report by Shan et al.[4] who only observed pepsin-catalysed cleavage of the N-terminal leucine. Additionally, no analyte loss is expected to take place during sample preparation, which involves the removal of albumins/globulins.
(§1) First, flours (150–200 mg) were defatted with pentane/ethanol (95/5, v/v; 2 × 2.0 mL)[40]. The gliadin fractions from the different defatted flours were extracted as described above. […] The obtained peptide mixture was dried using a vacuum centrifuge (40 °C, 6 h, 800 Pa), re-dissolved in FA (0.1%, v/v, 500 μL), filtered (0.45 μm) and analysed by targeted LC-MS/MS. […] MJO, which were all analysed by untargeted LC-MS/MS. […]

[6] = test system: pepsin and trypsin/chymotrypsin (PTC); assay: Enzymatic hydrolysis of the 33-mer with pepsin and trypsin/chymotrypsin (PTC); format: in vitro ADME; conditions: untargeted LC-MS/MS
Experimental: Preliminary experiments using a combination of pepsin and trypsin/chymotrypsin (PTC) for enzymatic hydrolysis were performed with the 33-mer. This PTC hydrolysate of the 33-mer was analysed by untargeted LC-MS/MS followed by data evaluation using the MS/MS ions search module of the Mascot software based on the NCBI database (National Library of Medicine, Bethesda, MD, USA). In addition to the original 33-mer, the truncated forms after N-terminal removal of leucine resulting in a 32-mer (m/z 950.0, 4+ and m/z 1266.3, 3+) and pyro-32-mer (m/z 945.7, 4+ and m/z 1260.6, 3+) were identified, but no 30-mer (m/z 889.7, 4+ and m/z 1185.9, 3+) after potential removal of N-terminal LQL. The ratio 33-mer/32-mer/pyro-32-mer was about 12/76/12. To see whether cleavage of the N-terminal leucine could be minimised, only chymotrypsin was used for further experiments. […]
as §1, with “mL)[40].” for “mL)[40]. The gliadin fractions from the different defatted flours were extracted as described above.”

intestinal peptidases [7] = conditions: 5 (Shan et al. 2002); cited from earlier work
Excerpt: All gluten protein fractions, namely the alcohol-soluble prolamins and the insoluble glutelins, contain CD-active epitopes. The prolamin fraction is particularly rich in proline and glutamine and the numerous proline residues lead to a high resistance to complete proteolytic digestion by human gastric, pancreatic, and brushborder enzymes. […] The 33-mer is widely ca ...

cleaved bond [2]: leucine1-Q
fragment found [2]: pyro-32-mer
not cleaved [2]: no 30-mer identified
Substance: LQLQPFPQPQLPYPQPQLPYPQPQLPYPQPQPF
cleaved bond (pepsin): leucine1-Q
not cleaved (intestinal peptidases [1]): resistant to cleavage by intestinal peptidases
fragment found [3]: 33-mer deamidated at glutamine 72 and 33-mer deamidated at glutamine 65
not cleaved (α-chymotrypsin [4]): no detectable amounts of 32-mer, pyro-32-mer or 30-mer, only the intact 33-mer

stability towards chymotryptic cleavage, looking for *32-mer, pyro-*32-mer and *30-mer (α-chymotrypsin [5]; full MS/MS scans): stable under the conditions applied
Substance: LQLQP*FPQPQLPYPQPQLPYPQPQLPYPQ*PQ*P*F [*33-mer, [13C28]- and [15N4]-labelled 33-mer peptide used as isotopically labelled internal standard]

ratio 33-mer/32-mer/pyro-32-mer in the PTC hydrolysate ([6]; pepsin in 0.01 mol/L HCl, pH 2.0, 60 min, 37 °C, E:P 1:25, then trypsin and α-chymotrypsin in 0.05 mol/L phosphate buffer, pH 6.5, 120 min, 37 °C, E:P 1:200, Mascot, preliminary experiments): about 12/76/12
30-mer after potential removal of N-terminal LQL in the PTC hydrolysate ([6]; same PTC conditions as E1): no 30-mer
forms detected after incubation with chymotrypsin, full MS/MS scans of the m/z of 32-mer, pyro-32-mer and 30-mer (α-chymotrypsin [5]; full MS/MS scans, target mass ± 1): only the intact 33-mer
truncated forms after incubation with chymotrypsin, untargeted LC-MS/MS (α-chymotrypsin [5]; untargeted LC-MS/MS): no truncated forms
Substance: LQLQPFPQPQLPYPQPQLPYPQPQLPYPQPQPF [33-mer]
cleavage by intestinal peptidases (intestinal peptidases [7]): resistant to cleavage by intestinal peptidases
